Key:
Conditions in all cases: 48 h
P12-Ichikawa [1] = assay: cell viability relative to DMSO control; higher = less cytotoxic
Summary of the method: (§1)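 NOMO1, SEM and P12-Ichikawa leukemia cells spent at least four passages adapting to each medium before use. They were seeded at 500 cells/well (NOMO1, SEM) or 1000 cells/well (P12-Ichikawa) in 5 μl in 1536-well plates and pin-dosed with library compounds in DMSO at 11 threefold steps from 47 μM down to 0.79 nM. After 48 h at 37°C, CellTiter-Glo One luminescence was read. Viability is reported as a percentage of the DMSO wells on each plate, with cell-free wells as background.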

SEM cells [2] = assay: as above
Summary of the method: as §1

NOMO1 [3] = assay: as above
Summary of the method: as §1

P12-Ichikawa [4] = assay: AUC of viability dose-response curve (% viability x log10 dose units); higher = less sensitive
Summary of the method: (§2)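 Viability of medium-adapted leukemia cells was measured by CellTiter-Glo One luminescence after 48 h at 37°C with library compounds in DMSO. Doses were 11 threefold steps from 47 μM to 0.79 nM, in 1536-well plates at 500 or 1000 cells/well. Signals were normalised per plate to DMSO and cell-free wells and fitted with a four-parameter log-logistic model on log10 dose. Area under the curve was integrated by trapezoidal rule, with curves exceeding full viability scaled and failed quality-control curves removed.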

SEM cells [5] = assay: as above
Summary of the method: as §2

NOMO1 [6] = assay: as above
Summary of the method: as §2

Oc1cc2c(cc1O)C1c3ccc(O)c(O)c3OCC1(O)C2 (stereo not drawn)
cell viability [%]
Conditions | NOMO1 [3] | P12-Ichikawa [1] | SEM cells [2]
HPLM + 10% dialyzed FBS, 0.000781 µM | 95.1 | 96.7 | 83.5
HPLM + 10% dialyzed FBS, 0.00234 µM | 89.1 | 106 | 32.7
HPLM + 10% dialyzed FBS, 0.00702 µM | 104 | 108 | 89.1
HPLM + 10% dialyzed FBS, 0.0211 µM | 93.5 | 112 | 88.3
HPLM + 10% dialyzed FBS, 0.0632 µM | 111 | 103 | 100
HPLM + 10% dialyzed FBS, 0.19 µM | 107 | 113 | 102
HPLM + 10% dialyzed FBS, 0.569 µM | 102 | 95.5 | 93
HPLM + 10% dialyzed FBS, 1.71 µM | 115 | 118 | 100
HPLM + 10% dialyzed FBS, 5.12 µM | 111 | 102 | 99.7
HPLM + 10% dialyzed FBS, 15.4 µM | 105 | 111 | 100
HPLM + 10% dialyzed FBS, 46.1 µM | 110 | 112 | 90.6
RPMI 5 mM glucose + 10% FBS, 0.000781 µM | 102 | 104 | 83.8
RPMI 5 mM glucose + 10% FBS, 0.00234 µM | 92.3 | 96.6 | 36.7
RPMI 5 mM glucose + 10% FBS, 0.00702 µM | 101 | 102 | 99.2
RPMI 5 mM glucose + 10% FBS, 0.0211 µM | 102 | 101 | 102
RPMI 5 mM glucose + 10% FBS, 0.0632 µM | 91.9 | 101 | 91.3
RPMI 5 mM glucose + 10% FBS, 0.19 µM | 96.6 | 103 | 105
RPMI 5 mM glucose + 10% FBS, 0.569 µM | 97.7 | 102 | 101
RPMI 5 mM glucose + 10% FBS, 1.71 µM | 94.9 | 110 | 88.8
RPMI 5 mM glucose + 10% FBS, 5.12 µM | 106 | 118 | 108
RPMI 5 mM glucose + 10% FBS, 15.4 µM | 92.2 | 109 | 101
RPMI 5 mM glucose + 10% FBS, 46.1 µM | 93.9 | 108 | 87.7
RPMI 5 mM glucose + 10% dialyzed FBS, 0.000781 µM | 77.6 | 97.5 | 92.7
RPMI 5 mM glucose + 10% dialyzed FBS, 0.00234 µM | 87.2 | 93.8 | 34.3
RPMI 5 mM glucose + 10% dialyzed FBS, 0.00702 µM | 104 | 103 | 102
RPMI 5 mM glucose + 10% dialyzed FBS, 0.0211 µM | 97.2 | 102 | 91.7
RPMI 5 mM glucose + 10% dialyzed FBS, 0.0632 µM | 99 | 98.2 | 86.4
RPMI 5 mM glucose + 10% dialyzed FBS, 0.19 µM | 106 | 107 | 107
RPMI 5 mM glucose + 10% dialyzed FBS, 0.569 µM | 107 | 106 | 92.9
RPMI 5 mM glucose + 10% dialyzed FBS, 1.71 µM | 110 | 100 | 106
RPMI 5 mM glucose + 10% dialyzed FBS, 5.12 µM | 103 | 105 | 104
RPMI 5 mM glucose + 10% dialyzed FBS, 15.4 µM | 103 | 104 | 111
RPMI 5 mM glucose + 10% dialyzed FBS, 46.1 µM | 102 | 104 | 89.5

AUC of viability dose-response curve
Conditions | NOMO1 [6] | P12-Ichikawa [4] | SEM cells [5]
HPLM + 10% dialyzed FBS | 456 | 461 | 430
RPMI 5 mM glucose + 10% FBS | 464 | 449 | 441
RPMI 5 mM glucose + 10% dialyzed FBS | 459 | 469 | 447
